Like-named read-outs stand apart in the source and are kept apart here.
How the values were obtained:
AB1054 OXA-23 = assay: Meropenem potentiation (MPC@8), strain AB1054 OXA-23; type: cell-based, Acinetobacter baumannii; conditions: minimum BLI concentration inhibiting growth with meropenem 8 μg/mL; tested up to 20 μg/mL
KP1086 OXA-48 = assay: Biapenem potentiation (MPC@1), strain KP1086 OXA-48; type: cell-based; conditions: minimum BLI concentration inhibiting growth with biapenem 1 μg/mL; tested up to 40 μg/mL
Experimental: (§1) Biapenem was present in the test medium at 1 μg/mL. […] Table 3 summarizes the BLI potency of biapenem potentiation (MPC@1) for two strains overexpressing class A (KPC) and class D (OXA-48) carbapenemases. Biapenem MIC for each strain is also shown.

KP1004 KPC-2 [1] = assay: Biapenem potentiation (MPC@1), strain KP1004 KPC-2; type: cell-based; conditions: minimum BLI concentration inhibiting growth with biapenem 1 μg/mL; tested up to 40 μg/mL
Experimental: as §1

KP1004 KPC-2 [2] = assay: Aztreonam potentiation (MPC@4), strain KP1004 KPC-2; conditions: minimum BLI concentration inhibiting growth with aztreonam 4 μg/mL; tested up to 40 μg/mL
KP1010 SHV-12 = assay: Aztreonam potentiation (MPC@4), strain KP1010 SHV-12; conditions: minimum BLI concentration inhibiting growth with aztreonam 4 μg/mL; tested up to 40 μg/mL
AB1053 OXA-72 = assay: Meropenem potentiation (MPC@8), strain AB1053 OXA-72; type: cell-based, Acinetobacter baumannii; conditions: minimum BLI concentration inhibiting growth with meropenem 8 μg/mL; tested up to 20 μg/mL
KP1009 CTX-M-15 = assay: Aztreonam potentiation (MPC@4), strain KP1009 CTX-M-15; conditions: minimum BLI concentration inhibiting growth with aztreonam 4 μg/mL; tested up to 40 μg/mL
ec308 SHV-5 = assay: Aztreonam potentiation (MPC@4), strain ec308 SHV-5; conditions: minimum BLI concentration inhibiting growth with aztreonam 4 μg/mL; tested up to 40 μg/mL
KP1005 CTX-M-14 = assay: Tigemonam potentiation (MPC@4), strain KP1005 CTX-M-14; conditions: minimum BLI concentration inhibiting growth with tigemonam 4 μg/mL; tested up to 40 μg/mL
[3] = target: T1, purified class A, C and D enzymes (β-lactamases) (Acinetobacter baumannii, UniProt Q9L4P2); assay: biochemical; type: biochemical; conditions: purified OXA-23; nitrocefin (NCF) as reporter substrate
T1 construct: rows headed: Ki (OXA-23, NCF), uM; other: purified OXA-23; nitrocefin (NCF) as reporter substrate

[4] = target: purified class A, C and D enzymes (β-lactamases) (Klebsiella pneumoniae, UniProt Q6XEC0); assay: biochemical; type: biochemical; conditions: purified OXA-48; nitrocefin (NCF) as reporter substrate
[5] = target: purified class A, C and D enzymes (β-lactamases) (Klebsiella pneumoniae, UniProt Q9F663); assay: biochemical; type: biochemical; conditions: purified KPC-2; nitrocefin (NCF) as reporter substrate
[6] = target: T2, purified class A, C and D enzymes (β-lactamases) (Pseudomonas aeruginosa, UniProt P24735); assay: biochemical; type: biochemical
T2 construct: rows headed: Ki (Pa-AmpC, NCF), uM; other: purified Pa-AmpC; nitrocefin (NCF) as reporter substrate

[7] = target: purified class A, C and D enzymes (β-lactamases) (Enterobacter cloacae, UniProt P05364); assay: biochemical; type: biochemical
EC1010 CMY-6 = assay: Aztreonam potentiation (MPC@4), strain EC1010 CMY-6; conditions: minimum BLI concentration inhibiting growth with aztreonam 4 μg/mL; tested up to 40 μg/mL
ec302 TEM-10 = assay: Aztreonam potentiation (MPC@4), strain ec302 TEM-10; conditions: minimum BLI concentration inhibiting growth with aztreonam 4 μg/mL; tested up to 40 μg/mL
ECL1002 = assay: Aztreonam potentiation (MPC@4), strain ECL1002; conditions: minimum BLI concentration inhibiting growth with aztreonam 4 μg/mL; tested up to 40 μg/mL
[8] = purified Pa-AmpC, nitrocefin (NCF) as reporter substrate, read-out: Ki (Pa-AmpC, NCF)
[9] = purified P99, nitrocefin (NCF) as reporter substrate

Sequence of purified class A, C and D enzymes (β-lactamases) (Enterobacter cloacae, UniProt P05364) (P05364 21-381): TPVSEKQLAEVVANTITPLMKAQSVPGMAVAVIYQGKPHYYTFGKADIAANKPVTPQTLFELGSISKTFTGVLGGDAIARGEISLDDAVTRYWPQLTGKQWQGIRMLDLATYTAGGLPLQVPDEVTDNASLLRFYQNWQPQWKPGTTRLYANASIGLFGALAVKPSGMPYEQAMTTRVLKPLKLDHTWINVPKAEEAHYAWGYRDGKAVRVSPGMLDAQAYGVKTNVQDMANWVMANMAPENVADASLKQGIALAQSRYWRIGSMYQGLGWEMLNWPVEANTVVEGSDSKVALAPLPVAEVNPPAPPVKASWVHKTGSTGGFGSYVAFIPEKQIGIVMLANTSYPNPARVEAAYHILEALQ
T1 sequence (Q9L4P2 whole entry): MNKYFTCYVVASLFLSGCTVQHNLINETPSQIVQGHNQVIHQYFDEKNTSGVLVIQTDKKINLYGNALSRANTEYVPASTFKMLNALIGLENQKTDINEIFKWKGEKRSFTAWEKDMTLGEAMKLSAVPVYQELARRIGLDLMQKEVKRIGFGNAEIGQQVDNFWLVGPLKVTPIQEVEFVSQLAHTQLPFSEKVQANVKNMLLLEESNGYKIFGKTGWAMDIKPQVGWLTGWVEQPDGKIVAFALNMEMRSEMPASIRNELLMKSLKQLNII
T2 sequence (P24735 whole entry): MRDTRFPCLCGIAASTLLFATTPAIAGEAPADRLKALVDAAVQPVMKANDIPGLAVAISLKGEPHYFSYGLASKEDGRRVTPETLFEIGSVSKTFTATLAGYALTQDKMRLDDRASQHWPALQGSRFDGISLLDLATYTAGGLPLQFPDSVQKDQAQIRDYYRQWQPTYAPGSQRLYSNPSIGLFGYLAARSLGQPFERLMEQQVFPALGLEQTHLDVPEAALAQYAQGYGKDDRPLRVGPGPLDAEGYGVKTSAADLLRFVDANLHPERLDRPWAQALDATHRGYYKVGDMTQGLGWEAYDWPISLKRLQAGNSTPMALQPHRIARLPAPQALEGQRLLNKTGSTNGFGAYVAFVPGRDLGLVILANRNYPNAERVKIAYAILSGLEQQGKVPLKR

SMILES	MPM MPC8 AB1054 OXA-23 (AB1054 OXA-23)	BPM MPC1 OXA-48 KP1086 (KP1086 OXA-48)	BPM MPC1 KP1004 KPC-2 (KP1004 KPC-2 [1])	AZT MPC4 KPC-2 KP1004 (KP1004 KPC-2 [2])	AZT MPC4 SHV-12 KP1010 (KP1010 SHV-12)	MPM MPC8 AB1053 OXA-72 (AB1053 OXA-72)	AZT MPC4 CTX-M-15 KP1009 (KP1009 CTX-M-15)	AZT MPC4 SHV-5 ec308 (ec308 SHV-5)	TIG MPC4 CTX-M-14 KP1005 (KP1005 CTX-M-14)	Ki [3]	Ki (OXA-48, NCF), uM [4]	Ki (KPC-2, NCF), uM [5]	Ki [6, 8]	Ki (P99, NCF), uM [7, 9]	AZT MPC4 CMY-6 EC1010 (EC1010 CMY-6)	AZT MPC4 TEM-10 ec302 (ec302 TEM-10)	AZT MPC4 ECL1002 (ECL1002)	Ki [6]	Ki (P99, NCF), uM [7]
O=C(O)c1c(OC(CO)CO)ccc2c1OB(O)CC2 [Compound 44, 2-hydroxy-7-[2-hydroxy-1-(hydroxymethyl)ethoxy]-3,4-dihydro-1,2-benzoxaborinine-8-carboxylic acid]	Y (Y = 5 μg/mL < MPC@1 ≤ 20 μg/mL)	X (X = MPC@1 ≤ 5 μg/mL)	X (X = MPC@1 ≤ 5 μg/mL)	X (X = MPC@4 ≤ 5 μg/mL)	X (X = MPC@4 ≤ 5 μg/mL)	X (X = MPC@1 ≤ 5 μg/mL)	Y (Y = 5 μg/mL < MPC@4 ≤ 20 μg/mL)	Y (Y = 5 μg/mL < MPC@4 ≤ 20 μg/mL)	Z (Z = MPC@4 > 20 μg/mL)	< 100 nM	X (X = Ki ≤ 0.1 μM)	X (X = Ki ≤ 0.1 μM)	< 100 nM	X (X = Ki ≤ 0.1 μM)	X (X = MPC@4 ≤ 5 μg/mL)	Y (Y = 5 μg/mL < MPC@4 ≤ 20 μg/mL)	Y (Y = 5 μg/mL < MPC@4 ≤ 20 μg/mL)	–	–
NCC#CCOc1ccc2c(c1C(=O)[O-])O[B-](O)(O)CC2.[Na+].[Na+] [Compound 32, Disodium; 8-(4-aminobut-2-ynoxy)-4,4-dihydroxy-5-oxa-4-boranuidabicyclo[4.4.0]deca-1(6),7,9-triene-7-carboxylate]	X (X = MPC@1 ≤ 5 μg/mL)	X (X = MPC@1 ≤ 5 μg/mL)	X (X = MPC@1 ≤ 5 μg/mL)	X (X = MPC@4 ≤ 5 μg/mL)	X (X = MPC@4 ≤ 5 μg/mL)	X (X = MPC@1 ≤ 5 μg/mL)	X (X = MPC@4 ≤ 5 μg/mL)	Y (Y = 5 μg/mL < MPC@4 ≤ 20 μg/mL)	Y (Y = 5 μg/mL < MPC@4 ≤ 20 μg/mL)	< 100 nM	X (X = Ki ≤ 0.1 μM)	X (X = Ki ≤ 0.1 μM)	–	–	X (X = MPC@4 ≤ 5 μg/mL)	X (X = MPC@4 ≤ 5 μg/mL)	X (X = MPC@4 ≤ 5 μg/mL)	< 100 nM	X (key: X = Ki ≤ 0.1 μM; Y = 0.1 μM < Ki ≤ 1 μM; Z = Ki > 1 μM)
O=C(O)c1c(OCC2OCCO2)ccc2c1OB(O)CC2 [Compound 26, 7-(1,3-Dioxolan-2-ylmethoxy)-2-hydroxy-3,4-dihydro-1,2-benzoxaborinine-8-carboxylic acid]	Y (Y = 5 μg/mL < MPC@1 ≤ 20 μg/mL)	X (X = MPC@1 ≤ 5 μg/mL)	X (X = MPC@1 ≤ 5 μg/mL)	X (X = MPC@4 ≤ 5 μg/mL)	X (X = MPC@4 ≤ 5 μg/mL)	X (X = MPC@1 ≤ 5 μg/mL)	Y (Y = 5 μg/mL < MPC@4 ≤ 20 μg/mL)	Y (Y = 5 μg/mL < MPC@4 ≤ 20 μg/mL)	Z (Z = MPC@4 > 20 μg/mL)	< 100 nM	X (X = Ki ≤ 0.1 μM)	X (X = Ki ≤ 0.1 μM)	< 100 nM	X (X = Ki ≤ 0.1 μM)	X (X = MPC@4 ≤ 5 μg/mL)	Y (Y = 5 μg/mL < MPC@4 ≤ 20 μg/mL)	X (X = MPC@4 ≤ 5 μg/mL)	–	–
O=C([O-])c1c(OCC#CCO)ccc2c1O[B-](O)(O)CC2.[Na+].[Na+] [Compound 30, Disodium; 4,4-dihydroxy-8-(4-hydroxybut-2-ynoxy)-5-oxa-4-boranuidabicyclo[4.4.0]deca-1(6),7,9-triene-7-carboxylate]	X (X = MPC@1 ≤ 5 μg/mL)	Y (Y = 5 μg/mL < MPC@1 ≤ 20 μg/mL)	X (X = MPC@1 ≤ 5 μg/mL)	X (X = MPC@4 ≤ 5 μg/mL)	X (X = MPC@4 ≤ 5 μg/mL)	X (X = MPC@1 ≤ 5 μg/mL)	X (X = MPC@4 ≤ 5 μg/mL)	X (X = MPC@4 ≤ 5 μg/mL)	Y (Y = 5 μg/mL < MPC@4 ≤ 20 μg/mL)	< 100 nM	X (X = Ki ≤ 0.1 μM)	X (X = Ki ≤ 0.1 μM)	–	–	X (X = MPC@4 ≤ 5 μg/mL)	X (X = MPC@4 ≤ 5 μg/mL)	X (X = MPC@4 ≤ 5 μg/mL)	< 100 nM	X (key: X = Ki ≤ 0.1 μM; Y = 0.1 μM < Ki ≤ 1 μM; Z = Ki > 1 μM)
N#CCOc1ccc2c(c1C(=O)O)OB(O)CC2 [Compound 47, 7-(Cyanomethoxy)-2-hydroxy-3,4-dihydro-1,2-benzoxaborinine-8-carboxylic acid]	X (X = MPC@1 ≤ 5 μg/mL)	X (X = MPC@1 ≤ 5 μg/mL)	X (X = MPC@1 ≤ 5 μg/mL)	X (X = MPC@4 ≤ 5 μg/mL)	X (X = MPC@4 ≤ 5 μg/mL)	X (X = MPC@1 ≤ 5 μg/mL)	X (X = MPC@4 ≤ 5 μg/mL)	X (X = MPC@4 ≤ 5 μg/mL)	X (X = MPC@4 ≤ 5 μg/mL)	< 100 nM	X (X = Ki ≤ 0.1 μM)	X (X = Ki ≤ 0.1 μM)	< 100 nM	X (X = Ki ≤ 0.1 μM)	X (X = MPC@4 ≤ 5 μg/mL)	X (X = MPC@4 ≤ 5 μg/mL)	X (X = MPC@4 ≤ 5 μg/mL)	–	–

Source: US10618918B2, “Substituted boronic acids as antimicrobials” (priority 2015, dated 2020)
